Experimental data reported in patent US11236129B2, “IL-17A binding peptides and medical uses thereof” (Dompe' Farmaceutici S.P.A., priority 2018, dated 2022).
Where two headings read alike, the source gives them in different places. Residues, ends and D or L forms follow the SMILES beside them.

Experiments:
[1] = type: physicochemical; settings: pH 7.8
Description: Each lyophilized peptide was weighed in an amber vial. A calculated volume of phosphate buffered solution at pH 7.8 was added in order to directly obtain 10 mM Stock Solutions. The recovered suspensions were stirred for 30 minutes by orbital shaker incubator at 37° C. Subsequent dilutions were performed to obtain the more diluted stock solutions for the less soluble compounds.
In order to evaluate the stability and the solubility, all the stock solutions were stored at 25° C. The title was evaluated by UHPLC-MS analysis in comparison with the standard solutions, at 3 time points: T0, 3 days, 1 week.
The chromatographic profile was evaluated for the quantitative assay while the MS spectra were detected as support in the stability studies.
Each peptide was weighed and directly diluted at 100 μM with the phosphate buffer at pH 7.8. The solutions were stirred for 5 minutes by vortex and heated at 37° C. for 20 minutes. The obtained standard solution was stored at 25° C. in the dark under controlled temperature.
A portion of the stock solutions was collected in an amber vial and diluted to 100 μM by phosphate buffer at pH 7.8 (dilution factor, 1:100).
Reversed-phase UHPLC was performed operating at a flow rate of 0.3 ml/min with a Luna Omega Polar C18 column ([…] 1.6 μm, 2.1×100 mm). Solvent A was 0.5% Formic Acid in water and solvent B was 0.5% Formic Acid in acetonitrile. First, samples were loaded onto the column and washed isocratically at 10% B for 3 min. Then, a gradient of 10-95% B was run over 22 min, held at 95% for 2 min, and then decreased to 10% over 1 min and held, for the pressure stabilization, for 5 min. UV Absorption was monitored by DAD (220-400 nm). ESI-MS ion trap was used for the monitoring of TIC.

[2] = Isoelectric point, log D and log P (SiriusT3); type: physicochemical; settings: for IP (isoelectric point): 25±1° C., 0.15 M KCl
Description: The main physicochemical properties (Isoelectric point (IP), log D (7.4) and log P) of the peptides of Table 8 below were determined by using the SiriusT3 apparatus (Sirius Analytical Instruments Ltd., East Sussex, UK) equipped with an Ag/AgCl double junction reference pH electrode, a Sirius D-PAS spectrometer and a turbidity sensing device. […] An overhead stirrer was used and a temperature probe (Peltier controller) monitored the temperature during the course of the titration. The titration experiments were conducted in 0.15 M KCl Ionic Strength Adjusted solution (ISA water) under a nitrogen atmosphere at a temperature of 25±1° C. All tests were performed using standardized 0.5 M KOH and 0.5 M HCl as titration reagents, for the partition coefficient tests a saturated Octanol in ISA water (5% of ISA water) was used as partition solvent. The pKas were determined by potentiometric method by pH-metric titration. The powder (around 0.5 mg) was dissolved in 1.5 ml of ISA water and the titration was performed in triplicate in the pH range 2.0−12.0.

[3] = biological target: IL-17RA/IL17RC dimerization induced by IL-17A (Homo sapiens, UniProt Q16552); test: IL-17RA/IL17RC dimerization assay in response to IL-17A (PathHunter Cytokine Receptor Assay); type: cell-based; settings: IL-17A at EC80; read-out: IC50 in IL-17RA/IL7RC dimerization assay
In short: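 Receptor dimerization was read as chemiluminescence from complemented β-galactosidase after IL-17A at EC80 concentration for 6–16 h at 37 °C. Peptides were added 60 min before agonist, at 37 °C or room temperature, with 1% vehicle. Percent inhibition used the EC80-stimulated and vehicle wells as references.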

[4] = octanol/ISA water, read-out: logP
[5] = pH 7.4, pH 7.4, octanol/ISA water, read-out: Log D (7.4)

Chain of IL-17RA/IL17RC dimerization induced by IL-17A (Q16552 24-155): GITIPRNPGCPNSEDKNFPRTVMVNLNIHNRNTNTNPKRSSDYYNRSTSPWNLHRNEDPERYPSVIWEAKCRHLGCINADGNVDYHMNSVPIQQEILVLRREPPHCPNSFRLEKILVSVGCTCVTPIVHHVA

SMILES	solubility [1]	IP (isoelectric point) [2]	logP ([2]; logP)	logD ([2]; pH 7.4, Log D (7.4))	IC50 [3]	logP [2, 4]	logD [2, 5]
CC[C@H](C)[C@H](NC(C)=O)C(=O)N[C@@H](Cc1c[nH]cn1)C(=O)N[C@H](C(=O)N[C@H](C(=O)N[C@H](C(=O)N1CCC[C@H]1C(=O)N[C@@H](C)C(=O)N[C@@H](CC(=O)O)C(=O)N[C@@H](CC(C)C)C(=O)N[C@@H](Cc1c[nH]c2ccccc12)C(=O)N[C@@H](CC(=O)O)C(=O)N[C@@H](Cc1c[nH]c2ccccc12)C(=O)N[C@H](C(=O)N[C@@H](CC(N)=O)C(=O)N[C@@H](CCCCN)C(N)=O)C(C)C)[C@@H](C)CC)[C@@H](C)O)C(C)C [SEQ ID NO: 8] (Ac-IHVTIPADLWDWVNK-NH2)	> 10 mM	5.14	-5.12	-4.06	< 200 nM		
CC[C@H](C)[C@H](NC(C)=O)C(=O)N[C@@H](Cc1c[nH]cn1)C(=O)N[C@H](C(=O)N[C@H](C(=O)N[C@H](C(=O)N1CCC[C@H]1C(=O)N[C@@H](C)C(=O)N[C@@H](CC(=O)O)C(=O)N[C@@H](CC(C)C)C(=O)N[C@@H](Cc1c[nH]c2ccccc12)C(=O)N[C@@H](CC(=O)O)C(=O)N[C@@H](Cc1c[nH]c2ccccc12)C(=O)N[C@H](C(=O)N[C@@H](CCCNC(=N)N)C(=O)N[C@@H](CCCCN)C(N)=O)[C@@H](C)CC)[C@@H](C)CC)[C@@H](C)O)C(C)C [SEQ ID NO: 9] (Ac-IHVTIPADLWDWIRK-NH2)	> 10 mM	8.28	-0.53	-1.08	< 300 nM		
CC[C@H](C)[C@H](NC(C)=O)C(=O)N[C@@H](Cc1c[nH]cn1)C(=O)N[C@H](C(=O)N[C@H](C(=O)N[C@H](C(=O)N1CCC[C@H]1C(=O)N[C@@H](C)C(=O)N[C@@H](CC(=O)O)C(=O)N[C@@H](CC(C)C)C(=O)N[C@@H](Cc1c[nH]c2ccccc12)C(=O)N[C@@H](CC(=O)O)C(=O)N[C@@H](Cc1c[nH]c2ccccc12)C(=O)N[C@H](C(=O)N[C@@H](CC(N)=O)C(=O)N[C@@H](CCCNC(=N)N)C(N)=O)[C@@H](C)CC)[C@@H](C)CC)[C@@H](C)O)C(C)C [SEQ ID NO: 10] (Ac-IHVTIPADLWDWINR-NH2)	> 10 mM	5.14	0.09	-3.66	< 400 nM		
CC[C@H](C)[C@H](NC(C)=O)C(=O)N[C@@H](Cc1c[nH]cn1)C(=O)N[C@H](C(=O)N[C@H](C(=O)N[C@H](C(=O)N1CCC[C@H]1C(=O)N[C@@H](C)C(=O)N[C@@H](CC(=O)O)C(=O)N[C@@H](CC(C)C)C(=O)N[C@@H](Cc1c[nH]c2ccccc12)C(=O)N[C@@H](CC(=O)O)C(=O)N[C@@H](Cc1c[nH]c2ccccc12)C(=O)N[C@H](C(=O)N[C@@H](CC(N)=O)C(=O)N[C@@H](CCC(=O)O)C(N)=O)[C@@H](C)CC)[C@@H](C)CC)[C@@H](C)O)C(C)C [SEQ ID NO: 12, IHVTIPADLWDWINE] (Ac-IHVTIPADLWDWINE-NH2)	≥ 0.01 mM	3.66	1.31	-5.24	< 200 nM		
CC[C@H](C)[C@H](NC(C)=O)C(=O)N[C@@H](Cc1c[nH]cn1)C(=O)N[C@H](C(=O)N[C@H](C(=O)N[C@H](C(=O)N1CCC[C@H]1C(=O)N[C@@H](C)C(=O)N[C@@H](CC(=O)O)C(=O)N[C@@H](CC(C)C)C(=O)N[C@@H](Cc1c[nH]c2ccccc12)C(=O)N[C@@H](CC(=O)O)C(=O)N[C@@H](Cc1c[nH]c2ccccc12)C(=O)N[C@H](C(=O)N[C@@H](CCC(=O)O)C(=O)N[C@@H](CCC(=O)O)C(N)=O)C(C)C)[C@@H](C)CC)[C@@H](C)O)C(C)C [SEQ ID NO: 15] (Ac-IHVTIPADLWDWVEE-NH2)	≥ 0.05 mM	3.51	1.66	1.88	< 400 nM		
CC[C@H](C)[C@H](NC(=O)[C@H](Cc1c[nH]c2ccccc12)NC(=O)[C@H](CCC(=O)O)NC(=O)[C@H](Cc1ccc(O)cc1)NC(=O)[C@H](CC(C)C)NC(=O)[C@H](CC(=O)O)NC(=O)[C@H](C)NC(=O)[C@@H]1CCCN1C(=O)[C@@H](NC(=O)[C@@H](NC(=O)[C@@H](NC(=O)[C@H](CCSC)NC(=O)[C@@H](NC(C)=O)C(C)C)C(C)C)[C@@H](C)O)[C@@H](C)CC)C(=O)N[C@@H](CC(N)=O)C(=O)N[C@@H](CCCCN)C(N)=O [SEQ ID NO: 16] (Ac-VMVTIPADLYEWINK-NH2)	> 10 mM	5.19			< 400 nM	0.13	0.24
CC[C@H](C)[C@H](NC(=O)[C@H](Cc1c[nH]c2ccccc12)NC(=O)[C@H](CCC(=O)O)NC(=O)[C@H](Cc1ccc(O)cc1)NC(=O)[C@H](CC(C)C)NC(=O)[C@H](CC(=O)O)NC(=O)[C@H](C)NC(=O)[C@@H]1CCCN1C(=O)[C@@H](NC(=O)[C@@H](NC(=O)[C@@H](NC(=O)[C@H](CCSC)NC(=O)[C@@H](NC(C)=O)C(C)C)C(C)C)[C@@H](C)O)[C@@H](C)CC)C(=O)N[C@@H](CCCNC(=N)N)C(=O)N[C@@H](CCCNC(=N)N)C(N)=O [SEQ ID NO: 17] (Ac-VMVTIPADLYEWIRR-NH2)	> 10 mM	8.05			< 400 nM	-0.44	-3.68
CC[C@H](C)[C@H](NC(=O)[C@H](Cc1c[nH]c2ccccc12)NC(=O)[C@H](CCC(=O)O)NC(=O)[C@H](Cc1ccc(O)cc1)NC(=O)[C@H](CC(C)C)NC(=O)[C@H](CC(=O)O)NC(=O)[C@H](C)NC(=O)[C@@H]1CCCN1C(=O)[C@@H](NC(=O)[C@@H](NC(=O)[C@@H](NC(=O)[C@H](CCSC)NC(=O)[C@@H](NC(C)=O)C(C)C)C(C)C)[C@@H](C)O)[C@@H](C)CC)C(=O)N[C@@H](CCC(=O)O)C(=O)N[C@@H](CCC(=O)O)C(=O)N[C@@H](CCCNC(=N)N)C(=O)N[C@@H](CCCNC(=N)N)C(=O)N[C@@H](CCCNC(=N)N)C(=O)N[C@@H](CCCNC(=N)N)C(=O)N[C@@H](CCCNC(=N)N)C(=O)N[C@@H](CCCNC(=N)N)C(N)=O [SEQ ID NO: 19] (Ac-VMVTIPADLYEWIEERRRRRR-NH2)	≥ 0.1 mM	12.49			< 1000 nM		-3.94
CC[C@H](C)[C@H](NC(=O)[C@H](Cc1c[nH]c2ccccc12)NC(=O)[C@H](CCC(=O)O)NC(=O)[C@H](Cc1ccc(O)cc1)NC(=O)[C@H](CC(C)C)NC(=O)[C@H](CC(=O)O)NC(=O)[C@H](C)NC(=O)[C@@H]1CCCN1C(=O)[C@@H](NC(=O)[C@@H](NC(=O)[C@@H](NC(=O)[C@H](CCSC)NC(=O)[C@@H](NC(C)=O)C(C)C)C(C)C)[C@@H](C)O)[C@@H](C)CC)C(=O)N[C@@H](CCC(=O)O)C(=O)N[C@@H](CCC(=O)O)C(=O)N[C@@H](CCCNC(=N)N)C(=O)N[C@@H](CCCNC(=N)N)C(=O)N[C@@H](CCCNC(=N)N)C(N)=O [SEQ ID NO: 20] (Ac-VMVTIPADLYEWIEERRR-NH2)	≥ 0.1 mM	11.29			< 1000 nM		-3.69
CC[C@H](C)[C@H](NC(=O)[C@H](Cc1c[nH]c2ccccc12)NC(=O)[C@H](CCC(=O)O)NC(=O)[C@H](Cc1ccc(O)cc1)NC(=O)[C@H](CC(C)C)NC(=O)[C@H](CC(=O)O)NC(=O)[C@H](C)NC(=O)[C@@H]1CCCN1C(=O)[C@@H](NC(=O)[C@@H](NC(=O)[C@@H](NC(=O)[C@H](CCSC)NC(=O)[C@@H](NC(C)=O)C(C)C)C(C)C)[C@@H](C)O)[C@@H](C)CC)C(=O)N[C@@H](CCC(=O)O)C(=O)N[C@@H](CCC(=O)O)C(=O)N[C@@H](C)C(=O)N[C@@H](CCCNC(=N)N)C(=O)N[C@@H](CCCCN)C(=O)N[C@@H](CCCCN)C(=O)N[C@@H](C)C(=O)N[C@@H](C)C(=O)N[C@@H](CCCCN)C(=O)N[C@@H](C)C(N)=O [SEQ ID NO: 21] (Ac-VMVTIPADLYEWIEEARKKAAKA-NH2)	> 10 mM	10.6			< 1000 nM	-4.99	-0.55
